The numbers were not newly measured in US20110160244A1, “PHENYL[…] MU-OPIOID RECEPTOR” (AUSPEX PHARMACEUTICALS, INC., priority 2008, published 2011), which cites them from elsewhere.

The conditions of data set [1]: after oral administration.

`CCOC(=O)C1(c2ccccc2)CCN(C)CC1` [Meperidine, Ethyl 1-methyl-4-phenylpiperidine-4-carboxylate]: the “fraction escaping first-pass metabolism” value in data set [1] is “about 50%”. Besides, under “following oral administration”, the “time to peak analgesic effect” value is at most 2 h and the “time until analgesic effects are detectable” value was at most 15 min. Further, the “time for which the drug is effective” value (statement on dosing interval) is 2 h.
